According to patent publication US9018249B2, “SGLT inhibitors” (Panacea Biotec Limited, priority 2011, dated 2015):

Columns and labels:
human SGLT-1 = target: T1, human SGLT-1 (Homo sapiens, UniProt P13866); assay: Methyl-α-D-[U-14C]glucopyranoside uptake assay for SGLT-1 in CHO-K1 cells; type: cell-based; conditions: CHO-K1 cells expressing hSGLT-1; for inhibition at 0.1 µM / inhibition at 1 µM / inhibition at 10 µM: read-out: % inhibition of Methyl-α-D-[U-^14C] Glucopyranoside uptake (CHO-K1 cells) mediated by SGLT-1
T1 construct: Full-length human SGLT-1 cDNA in the pCMV-XL-Neo expression vector was obtained from Origene Corporation; host or cells: CHO-K1 cells (American Type Culture Collection), stably transfected, G418-selected
T1 sequence (P13866 1-664): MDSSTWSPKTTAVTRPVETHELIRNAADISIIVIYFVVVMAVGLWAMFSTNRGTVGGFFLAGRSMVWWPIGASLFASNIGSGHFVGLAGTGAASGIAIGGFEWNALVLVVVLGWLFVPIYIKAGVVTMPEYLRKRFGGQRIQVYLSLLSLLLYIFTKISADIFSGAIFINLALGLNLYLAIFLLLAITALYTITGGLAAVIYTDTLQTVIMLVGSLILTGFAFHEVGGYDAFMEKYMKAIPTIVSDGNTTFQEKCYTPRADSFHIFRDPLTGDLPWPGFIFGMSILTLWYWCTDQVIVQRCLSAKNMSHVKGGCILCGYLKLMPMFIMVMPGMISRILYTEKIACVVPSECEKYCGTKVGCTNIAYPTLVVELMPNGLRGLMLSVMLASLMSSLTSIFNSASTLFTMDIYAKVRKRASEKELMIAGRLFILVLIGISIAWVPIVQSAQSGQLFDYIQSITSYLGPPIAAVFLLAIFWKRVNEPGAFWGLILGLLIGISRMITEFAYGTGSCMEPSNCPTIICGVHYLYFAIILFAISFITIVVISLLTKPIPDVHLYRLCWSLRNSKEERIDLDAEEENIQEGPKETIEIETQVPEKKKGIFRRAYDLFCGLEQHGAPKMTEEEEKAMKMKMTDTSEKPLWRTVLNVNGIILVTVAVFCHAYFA
Method: Preparation of Human SGLT-1 Expressing Cells
Full-length human SGLT-1 cDNA in the pCMV-XL-Neo expression vector was obtained from Origene Corporation and propagated in Escherichia coli strain DH5α using Luria-Bertani (LB) medium containing ampicillin. […] Stably transfected cells were selected using G418 antibiotic selection pressure.
Methyl-α-D-[U-^14C]Glucopyranoside Uptake Assay for SGLT-1
(§1) Cells expressing hSGLT-1 were seeded on 96-well tissue culture plates (Greiner, Inc.) in RPMI containing 10% FBS and 800 μg/ml G418 (0.8×10^5 cells per well in 200 μL medium) and incubated at 37° C. under 5% carbon dioxide for 24 h prior to the assay. Cells were washed twice with 200 μL of either sodium buffer (140 mM NaCl, 4.7 mM KCl, 2.2 mM CaCl2, 1.2 mM MgCl2, 10 mM Tris/Hepes, pH 7.4) or sodium-free buffer (137 mM N-methyl-glucamine, 4.7 mM KCl, 2.2 mM CaCl2, 1.2 mM MgCl2, 10 mM Tris/Hepes, pH 7.4). Reaction mixture containing test compounds diluted in assay buffer, 1 mM unlabeled Methyl-α-D-glucopyranoside and 1 μCi/well methyl-α-D-[U-^14C]glucopyranoside (American Radiochemicals) was added per well of a 96-well plate and incubated at 37° C. for 1 h. Cells were washed thrice with 200 μL of wash buffer (140 mM NaCl, 4.7 mM KCl, 2.2 mM CaCl2, 1.2 mM MgCl2, 10 mM Tris/Hepes, pH 7.4 containing 500 μM phlorizin) and lysed using 50 μL of 0.25N NaOH. Methyl-α-D[U-^14C]glucopyranoside uptake was quantitated using a Top count scintillation counter (PerkinElmer, Inc.). All the test compounds were assayed in triplicates.

C57BL/6J mice = assay: Estimation of urinary glucose in C57BL/6J mice; type: in vivo, mouse; conditions: urine collected over 24 h
Method: Estimation of Urinary Glucose in C57BL/6J Mice
C57BL/6J mice were fasted 4 h before drug treatment. Fasted mice were weighed and randomized into different groups based on their body weight (n=6). At time T0 test compounds and standard compounds suspended in 0.25% CMC or PEG 400 formulation, were administered to respective groups and kept in metabolic cages (6 mice/cage) after dosing. Animals were fed after drug administration and urine was collected over a period of 24 h. Urinary volume was measured and urinary glucose was estimated using Merckotest Glucose Reagent (Merck Specialties Pvt. Ltd., India).

mouse SGLT-2 = target: T2, mouse SGLT-2 (Mus musculus, UniProt Q923I7); assay: Methyl-α-D-[U-14C]glucopyranoside uptake assay for SGLT-2 in CHO-K1 cells; type: cell-based; conditions: CHO-K1 cells expressing mSGLT-2, read-out: % inhibition of Methyl-α-D-[U-^14C] Glucopyranoside uptake (CHO-K1 cells) mediated by SGLT-2; for inhibition at 0.001 µM: 1 nM; for inhibition at 0.01 µM: 10 nM; for inhibition at 0.1 µM: 100 nM
T2 construct: Full-length mouse SGLT-2 cDNA was amplified from C57BL/6J mouse kidneys and introduced in the pcDNA3.1(+) expression vector; expressed in transfected cells; host or cells: CHO-K1 cells (American Type Culture Collection), stably transfected, G418-selected
T2 sequence (Q923I7 1-670): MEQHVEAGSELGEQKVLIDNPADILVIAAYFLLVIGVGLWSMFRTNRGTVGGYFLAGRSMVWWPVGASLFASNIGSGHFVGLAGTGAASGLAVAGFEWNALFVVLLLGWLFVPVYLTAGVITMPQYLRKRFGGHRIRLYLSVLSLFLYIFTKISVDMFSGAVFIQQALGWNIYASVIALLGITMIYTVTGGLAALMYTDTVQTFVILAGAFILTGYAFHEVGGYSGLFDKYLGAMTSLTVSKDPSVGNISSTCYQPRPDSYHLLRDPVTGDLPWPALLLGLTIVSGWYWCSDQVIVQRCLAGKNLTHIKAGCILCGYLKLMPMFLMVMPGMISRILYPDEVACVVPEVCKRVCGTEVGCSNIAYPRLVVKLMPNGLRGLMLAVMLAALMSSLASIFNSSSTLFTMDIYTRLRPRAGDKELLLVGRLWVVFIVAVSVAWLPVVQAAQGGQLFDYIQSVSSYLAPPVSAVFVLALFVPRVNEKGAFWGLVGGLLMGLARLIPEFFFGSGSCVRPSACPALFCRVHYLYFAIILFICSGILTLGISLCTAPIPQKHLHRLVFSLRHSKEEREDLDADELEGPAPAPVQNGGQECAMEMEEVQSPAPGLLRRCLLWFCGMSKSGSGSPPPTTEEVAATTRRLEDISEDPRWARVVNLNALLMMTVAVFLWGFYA
Method: Preparation of Mouse SGLT-2 Expressing Cells
Full-length mouse SGLT-2 cDNA was amplified from C57BL/6J mouse kidneys and introduced in the pcDNA3.1(+) expression vector (Invitrogen, Inc.) and propagated in Escherichia coli strain DH5α using LuriaBertani (LB) medium containing ampicillin. […] Stably transfected cells were selected using G418 antibiotic selection pressure.
Methyl-α-D-[U-^14C]Glucopyranoside Uptake Assay for SGLT-2
as §1, with “Cells expressing mSGLT-2 were seeded” for “Cells expressing hSGLT-1 were seeded”, “FBS and 400 μg/mL G418 (0.8×10^5” for “FBS and 800 μg/ml G418 (0.8×10^5”, “test compounds at different concentrations diluted in” for “test compounds diluted in”, “assay buffer, 0.1 mM unlabeled” for “assay buffer, 1 mM unlabeled”, “0.25N NaOH. Methyl-α-D-[U-^14C]glucopyranoside uptake was” for “0.25N NaOH. Methyl-α-D[U-^14C]glucopyranoside uptake was”

Row | SMILES | inhibition at 0.1 µM (human SGLT-1; 100 nM) [%] | inhibition at 1 µM (human SGLT-1) [%] | inhibition at 10 µM (human SGLT-1) [%] | UGE in mice (in mg/g of feed consumed) at 3 mpk (C57BL/6J mice) | inhibition at 0.001 µM (mouse SGLT-2) [%] | inhibition at 0.01 µM (mouse SGLT-2) [%] | inhibition at 0.1 µM (mouse SGLT-2) [%] | % inhibition of Methyl-α-D-[U-^14C] Glucopyranoside uptake (CHO-K1 cells) mediated by SGLT-1 (human SGLT-1; 100 nM)
1 | CCON=CCOc1ccc(Cc2cc([C@]34OC[C@](CO)(O3)[C@@H](O)[C@H](O)[C@H]4O)ccc2Cl)cc1 [Compound 11] | 25.7 | 53.7 | 68.2 | 56.1 mg/g of feed consumed | < 0 | 20.1 | 50.8 | –
2 | CON=C(C)COc1ccc(Cc2cc(C3O[C@H](OC)[C@@H](O)[C@H](O)[C@H]3O)ccc2Cl)cc1 (stereo partly shown) [Compound 30] | 24 | 26.4 | 77.9 | – | 35.6 | 37.3 | 54 | –
3 | CON=CCCOc1ccc(Cc2cc(C3O[C@H](OC)[C@@H](O)[C@H](O)[C@H]3O)ccc2Cl)cc1 (stereo partly shown) [Compound 29] | – | 70 | 92.9 | – | 40.2 | 37.9 | 77.2 | N.E.
